Laboratory results as given in US8580815B2, “Derivatives of azaindoles as inhibitors of protein kinases ABL and SRC” (Oribase Pharma, priority 2009, dated 2013).
Like-named read-outs stand apart in the source and are kept apart here.

Experiments:
[1] = molecular target: Abl kinase (h) (Homo sapiens (Human), UniProt P00519); assay: Cerep kinase profiling, HTRF assay, Abl kinase; assay type: biochemical
Description: (§1) The inhibitory activity of the compounds of the chemical series on different protein kinases was evaluated by Cerep (Cerep Kinase Profiling Service; www.cerep.com). The kinases used in the tests in vitro are human recombinant proteins expressed in human cells, insect cells or in bacteria. […] The activity of the kinase was then detected by an HTRF assay. The HTRF assay (CisBio International) is based on fluorescence transfer, using Europium (Eu3+) cryptate and XL665 respectively as donor and acceptor. When the biotinylated or tagged substrate is phosphorylated by the kinase, it reacts with a cryptate-labelled phosphospecific antibody. Addition of Streptavidin-XL665, SA-XL665, (or anti-tag antibody XL665) leads to juxtaposition of the cryptate and of the fluorophore XL665, which is reflected in fluorescence resonance energy transfer (FRET). The intensity of FRET depends on the quantity of cryptate-labelled antibody bound to the substrate, which is proportional to the quantity of phosphorylated substrate (Mathis, G. Probing molecular interactions with homogeneous techniques based on rare earth cryptates and fluorescence energy transfer.

[2] = molecular target: Src kinase (h) (Homo sapiens (Human), UniProt P12931); assay: Cerep kinase profiling, HTRF assay, Src kinase; assay type: biochemical
Description: as §1

[3] = tested on: K562 cells expressing kinase Bcr-AbI; assay: Inhibition of cellular proliferation (MTT), K562 cells; assay type: cell-based, human
Description: Cellular tests were carried out at the Montpellier Cancer Research Centre. The inhibition of proliferation by our compounds was analysed on 2 cell lines (U937 and K562) by calculating the IC50, testing 6 concentrations in triplicate for each of the compounds and for each line.
Cells in exponential phase were seeded in 96-well plates at a concentration of 10^4 cells/100 μL/well. The final concentrations of compound in the well in contact with the cells were 0.1; 0.3; 0.9; 3.3; 10; 30; 90 μM. […]

[4] = molecular target: Abl T315I (Homo sapiens (Human), UniProt P00519, T315I); assay: Reaction Biology Corp. kinase assay, mutated Abl T315I; assay type: biochemical; conditions: Reaction Biology Corp.; for inhibition at 10 µM: read-out: % inhibition of kinase activity, Abl T315I (category); for IC50: ATP at 10 μM, read-out: IC50 on kinase Abl T315I (category)
Description: (§2) 4 compounds were tested for their capacity to inhibit various mutated kinases AbI (American company, Reaction Biology Corp.).

[5] = molecular target: Src kinase (Homo sapiens (Human), UniProt P12931); assay: Reaction Biology Corp. kinase assay, Src; conditions: compounds tested by Reaction Biology Corp.; for IC50: IC50 on kinase Src (category), ATP at 10 μM; for inhibition at 10 µM: read-out: % inhibition of kinase activity, Src (category), 10 μM
[6] = molecular target: Abl WT (Homo sapiens (Human), UniProt P00519); assay: Reaction Biology Corp. kinase assay, Abl WT; assay type: biochemical; conditions: compounds tested by Reaction Biology Corp.; for inhibition at 10 µM: read-out: % inhibition of kinase activity, Abl WT (category); for IC50: ATP at 10 μM, read-out: IC50 on kinase Abl WT (category)
Description: as §2

[7] = 10 μM, compounds tested by Cerep, read-out: % inhibition of kinase activity, Abl WT (category)
[8] = Table 6, compound incubated at 10 μM, read-out: Percentage inhibition of kinase Abl
[9] = Table 8, compound incubated at 10 μM, read-out: Percentage inhibition of kinase Abl
[10] = 10 μM, compounds tested by Cerep, read-out: % inhibition of kinase activity, Src (category)
[11] = compound incubated at 10 μM, read-out: Percentage inhibition of kinase c-Src
[12] = Homo sapiens, K562, 24 h, 24 h incubation, read-out: IC50 at 24 h on K562 (category)
[13] = Homo sapiens, K562, 72 h, read-out: IC50 at 72 h on K562 (category), 72 h incubation
[14] = Homo sapiens, K562, incubation time not stated (24 h and/or 72 h), read-out: IC50 for the K562 Bcr-AbI kinase (category)

Sequence of Src kinase (h) (P12931 whole entry, looked up): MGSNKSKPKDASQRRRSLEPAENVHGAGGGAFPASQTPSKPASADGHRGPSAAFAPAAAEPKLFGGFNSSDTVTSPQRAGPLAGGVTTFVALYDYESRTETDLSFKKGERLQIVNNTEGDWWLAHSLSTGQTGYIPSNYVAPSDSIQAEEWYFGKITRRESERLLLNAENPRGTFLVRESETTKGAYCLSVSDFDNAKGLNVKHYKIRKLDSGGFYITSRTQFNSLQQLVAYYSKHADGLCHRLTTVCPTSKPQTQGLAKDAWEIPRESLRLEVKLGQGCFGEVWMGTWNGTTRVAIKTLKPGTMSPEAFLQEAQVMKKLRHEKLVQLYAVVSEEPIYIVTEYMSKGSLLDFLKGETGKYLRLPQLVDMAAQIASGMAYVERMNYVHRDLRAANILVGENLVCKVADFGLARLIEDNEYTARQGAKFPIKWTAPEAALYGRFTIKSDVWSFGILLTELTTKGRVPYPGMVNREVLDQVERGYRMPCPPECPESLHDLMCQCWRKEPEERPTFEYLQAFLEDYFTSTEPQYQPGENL
Sequence of Src kinase (P12931 whole entry, looked up): as above

## COC(=O)c1cc2cc(NC(=O)c3c(F)cccc3OC)cnc2[nH]1 [ND0047, Methyl 5-(2-fluoro-6-methoxybenzamido)-1H-pyrrolo[2,3-b]pyridine-2-carboxylate]
[1]; [7]
  inhibition at 10 µM: > 50%
[1]; [8]
  inhibition at 10 µM: 94%
[1]; [9]
  inhibition at 10 µM: 94%
[2]; [10]
  inhibition at 10 µM: > 50%
[2]; [11]
  inhibition at 10 µM: 74%

## COC(=O)c1cc2cc(NCc3ccccc3C)cnc2[nH]1 [ND0090]
[3]; [12]
  IC50: 1000 to 10000 nM
[3]; [13]
  IC50: 10 to 1000 nM
[3]; [14]
  IC50: 10 nM
[4]
  inhibition at 10 µM: 10 to 50%
[5]
  IC50: 1 to 100 nM
  inhibition at 10 µM: > 50%
[6]
  inhibition at 10 µM: > 50%
  IC50: 1 to 100 nM

## COCc1cc2cc(NC(=O)c3ccccc3Br)cnc2[nH]1 [ND0021, 2-bromo-N-(2-(methoxymethyl)-1H-pyrrolo[2,3-b]pyridin-5-yl)benzamide]
[1]; [7]
  inhibition at 10 µM: > 50%
[1]; [8]
  inhibition at 10 µM: 94%
[1]; [9]
  inhibition at 10 µM: 94%
[2]; [10]
  inhibition at 10 µM: > 50%
[2]; [11]
  inhibition at 10 µM: 59%

## COC(=O)c1cc2cc(NC(=O)c3c(C)cccc3Cl)cnc2[nH]1 [ND0074, Methyl 5-(2-chloro-6-methylbenzamido)-1H-pyrrolo[2,3-b]pyridine-2-carboxylate]
[3]; [12]
  IC50: > 10000 nM
[3]; [13]
  IC50: 10 to 1000 nM
[3]; incubation time not stated (24 h and/or 72 h), read-out: IC50 for the K562 Bcr-AbI kinase (category)
  IC50: > 10000 nM
[4]
  inhibition at 10 µM: < 10%
[5]
  IC50: 1 to 100 nM
  inhibition at 10 µM: > 50%
[6]
  IC50: 1 to 100 nM

## COC(=O)c1cc2cc(NC(=O)c3cc(NC(=O)c4ccc(CN5CCN(C)CC5)cc4)ccc3C)cnc2[nH]1 [ND0117, methyl 5-(5-(4-((4-methylpiperazin-1-yl)methyl)benzamido)-2-methylbenzamido)-1H-pyrrolo[2,3-b]pyridine-2-carboxylate]
[3]; [12]
  IC50: 10 nM
[3]; [13]
  IC50: < 10 nM
[3]; [14]
  IC50: 10 nM
[4]
  inhibition at 10 µM: 10 to 50%
[5]
  IC50: 1 to 100 nM
  inhibition at 10 µM: > 50%
[6]
  inhibition at 10 µM: > 50%
  IC50: < 1 nM

## COC(=O)c1cc2cc(NCc3c(Cl)cccc3Cl)cnc2[nH]1 [ND0087]
[3]; [12]
  IC50: 1000 to 10000 nM
[3]; [13]
  IC50: 10 to 1000 nM
[3]; [14]
  IC50: 10 nM
[4]
  inhibition at 10 µM: 10 to 50%
[5]
  IC50: 1 to 100 nM
  inhibition at 10 µM: > 50%
[6]
  inhibition at 10 µM: > 50%
  IC50: 1 to 100 nM

## O=C(Nc1cnc2[nH]c(CNc3ccc(O)cc3)cc2c1)c1ccccc1Br [ND0038]
[1]; [7]
  inhibition at 10 µM: > 50%
[1]; [8]
  inhibition at 10 µM: 94%
[1]; [9]
  inhibition at 10 µM: 94%
[1]; Table 9, Cerep, 5 concentrations 10^−10 M to 10^−4 M, read-out: IC50 in M Abl
  IC50: 2600 nM
[1]; compounds tested by Cerep, read-out: IC50 on kinase Abl WT (category)
  IC50: 100 to 10000 nM
[2]; [10]
  inhibition at 10 µM: > 50%
[2]; [11]
  inhibition at 10 µM: 71%

## COC(=O)c1cc2cc(NC(=O)c3ccccc3C)cnc2[nH]1 [ND0076, Methyl 5-(2-methylbenzamido)-1H-pyrrolo[2,3-b]pyridine-2-carboxylate]
[3]; [12]
  IC50: 1000 to 10000 nM
[3]; [13]
  IC50: 10 to 1000 nM
[3]; [14]
  IC50: 10 nM
[4]
  inhibition at 10 µM: < 10%
[5]
  inhibition at 10 µM: > 50%
[6]
  inhibition at 10 µM: > 50%
  IC50: 100 to 10000 nM

## COC(=O)c1cc2cc(NCc3ccc4[nH]ccc4c3)cnc2[nH]1 [ND0096]
[3]; [12]
  IC50: 1000 to 10000 nM
[3]; [13]
  IC50: 10 to 1000 nM
[3]; [14]
  IC50: 10 nM
[4]
  inhibition at 10 µM: > 50%
  IC50: 100 to 10000 nM
[5]
  IC50: 100 to 10000 nM
  inhibition at 10 µM: > 50%
[6]
  inhibition at 10 µM: > 50%
  IC50: 1 to 100 nM

## COC(=O)c1cc2cc(NC(=O)c3c(Cl)cccc3Cl)cnc2[nH]1 [ND0072, Methyl 5-(2,6-dichlorobenzamido)-1H-pyrrolo[2,3-b]pyridine-2-carboxylate]
[3]; [12]
  IC50: > 10000 nM
[3]; [13]
  IC50: 10 to 1000 nM
[4]
  inhibition at 10 µM: < 10%
[5]
  IC50: 1 to 100 nM
  inhibition at 10 µM: > 50%
[6]
  inhibition at 10 µM: > 50%
  IC50: 1 to 100 nM

## O=C(Nc1cnc2[nH]c(Cc3ccc[nH]3)cc2c1)c1ccccc1Br [ND0037]
[1]; [7]
  inhibition at 10 µM: > 50%
[1]; [8]
  inhibition at 10 µM: 97%
[1]; [9]
  inhibition at 10 µM: 97%
[2]; [10]
  inhibition at 10 µM: > 50%
[2]; [11]
  inhibition at 10 µM: 72%

## COC(=O)c1cc2cc(NCc3cc(NC(=O)c4ccc(CN5CCN(C)CC5)cc4)ccc3C)cnc2[nH]1 [ND0118, methyl 5-(5-(4-((4-methylpiperazin-1-yl)methyl)benzamido)-2-methyl-benzylamino)-1H-pyrrolo[2,3-b]pyridine-2-carboxylate]
[3]; [12]
  IC50: 1000 to 10000 nM
[3]; [13]
  IC50: < 10 nM
[4]
  inhibition at 10 µM: > 50%
  IC50: 100 to 10000 nM
[5]
  IC50: < 1 nM
  inhibition at 10 µM: > 50%
[6]
  inhibition at 10 µM: > 50%
  IC50: < 1 nM

## COC(=O)c1cc2cc(NCc3c(C)cccc3Cl)cnc2[nH]1 [ND0089]
[3]; [12]
  IC50: > 10000 nM
[3]; [13]
  IC50: 10 to 1000 nM
[4]
  inhibition at 10 µM: < 10%
[5]
  IC50: 1 to 100 nM
  inhibition at 10 µM: > 50%
[6]
  inhibition at 10 µM: > 50%
  IC50: 1 to 100 nM

## COC(=O)c1cc2cc(NCc3ccccc3OC)cnc2[nH]1 [ND0088]
[4]
  inhibition at 10 µM: < 10%
[5]
  IC50: 100 to 10000 nM
  inhibition at 10 µM: > 50%
[6]
  inhibition at 10 µM: > 50%
  IC50: 100 to 10000 nM

## COC(=O)c1cc2cc(NC(=O)c3cc(NC(=O)c4ccc(CN5CCC(N(C)C)C5)c(C(F)(F)F)c4)ccc3C)cnc2[nH]1 (stereo not drawn) [ND0119, methyl 5-(5-(4-((3-(dimethylamino)pyrrolidin-1-yl)methyl)-3-(trifluoro-methyl)benzamido)-2-methylbenzamido)-1H-pyrrolo[2,3-b]pyridine-2-carboxylate]
[3]; [12]
  IC50: 10 nM
[3]; [13]
  IC50: < 10 nM
[3]; [14]
  IC50: 10 nM
[4]
  inhibition at 10 µM: > 50%
  IC50: 100 to 10000 nM
[5]
  IC50: 1 to 100 nM
  inhibition at 10 µM: > 50%
[6]
  inhibition at 10 µM: > 50%
  IC50: < 1 nM

## COC(=O)c1cc2cc(Nc3ccncc3)cnc2[nH]1 [ND0058]
[4]
  inhibition at 10 µM: < 10%
[5]
  inhibition at 10 µM: 10 to 50%
[6]
  inhibition at 10 µM: 10 to 50%
